Results published in ChEMBL document CHEMBL3877277, “Design, synthesis and biological evaluation of new phthalimide and saccharin derivatives with alicyclic amines targeting cholinesterases, beta-secretase and amyloid beta aggregation” (Eur J Med Chem, 2017).
Calls of active or inactive are those of the source. The rule behind the calls is not given here.

What was measured:
[1] = target: Cholinesterase (Equus caballus) (UniProt P81908); test: Inhibition of equine serum BuChE at 10 uM using butyrylthiocholine iodide as substrate preincubated for 5 mins followed by substrate addition measured after 5 mins by Ellman's method relative to control
Sequence of Cholinesterase (Equus caballus) (P81908 whole entry): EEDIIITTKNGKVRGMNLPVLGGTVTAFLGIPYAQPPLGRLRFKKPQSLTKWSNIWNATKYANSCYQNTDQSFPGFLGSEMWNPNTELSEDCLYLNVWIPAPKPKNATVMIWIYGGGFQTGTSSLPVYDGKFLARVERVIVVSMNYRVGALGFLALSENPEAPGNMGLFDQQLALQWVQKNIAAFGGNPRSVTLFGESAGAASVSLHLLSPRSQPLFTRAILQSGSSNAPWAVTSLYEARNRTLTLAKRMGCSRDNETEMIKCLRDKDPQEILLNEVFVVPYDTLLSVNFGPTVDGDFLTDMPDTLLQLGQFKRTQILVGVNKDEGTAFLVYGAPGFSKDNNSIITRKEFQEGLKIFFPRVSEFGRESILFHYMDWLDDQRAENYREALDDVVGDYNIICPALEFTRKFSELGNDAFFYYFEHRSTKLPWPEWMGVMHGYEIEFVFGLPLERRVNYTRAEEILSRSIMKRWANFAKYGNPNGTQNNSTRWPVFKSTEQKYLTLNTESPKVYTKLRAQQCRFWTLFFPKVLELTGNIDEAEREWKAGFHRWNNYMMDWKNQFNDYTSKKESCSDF

[2] = target: Acetylcholinesterase (Electrophorus electricus) (UniProt O42275); test: Inhibition of Electric eel AChE at 10 uM using acetylthiocholine iodide as substrate preincubated for 5 mins followed by substrate addition measured after 5 mins by Ellman's method relative to control
Sequence of Acetylcholinesterase (Electrophorus electricus) (O42275 24-633 limits assumed): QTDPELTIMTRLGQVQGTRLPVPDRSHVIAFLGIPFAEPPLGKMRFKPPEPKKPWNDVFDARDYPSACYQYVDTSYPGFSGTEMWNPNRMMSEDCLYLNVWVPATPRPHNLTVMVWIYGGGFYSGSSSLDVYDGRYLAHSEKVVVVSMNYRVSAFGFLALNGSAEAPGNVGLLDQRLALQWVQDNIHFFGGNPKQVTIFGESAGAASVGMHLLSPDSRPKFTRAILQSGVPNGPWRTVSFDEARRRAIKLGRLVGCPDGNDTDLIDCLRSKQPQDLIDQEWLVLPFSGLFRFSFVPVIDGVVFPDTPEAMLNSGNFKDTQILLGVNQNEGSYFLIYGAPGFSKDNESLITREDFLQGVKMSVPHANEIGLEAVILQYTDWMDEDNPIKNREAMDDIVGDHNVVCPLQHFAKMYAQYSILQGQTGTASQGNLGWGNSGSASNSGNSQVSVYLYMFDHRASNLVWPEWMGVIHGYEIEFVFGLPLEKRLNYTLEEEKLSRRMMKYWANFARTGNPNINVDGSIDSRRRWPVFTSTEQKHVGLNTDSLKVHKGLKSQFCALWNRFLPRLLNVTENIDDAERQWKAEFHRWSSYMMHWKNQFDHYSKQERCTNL

in vitro = details: PAMPA
Acetylcholinesterase [3] = target: Acetylcholinesterase (Electrophorus electricus, UniProt O42275)
Sequence of Acetylcholinesterase (Electrophorus electricus, UniProt O42275) (O42275 whole entry): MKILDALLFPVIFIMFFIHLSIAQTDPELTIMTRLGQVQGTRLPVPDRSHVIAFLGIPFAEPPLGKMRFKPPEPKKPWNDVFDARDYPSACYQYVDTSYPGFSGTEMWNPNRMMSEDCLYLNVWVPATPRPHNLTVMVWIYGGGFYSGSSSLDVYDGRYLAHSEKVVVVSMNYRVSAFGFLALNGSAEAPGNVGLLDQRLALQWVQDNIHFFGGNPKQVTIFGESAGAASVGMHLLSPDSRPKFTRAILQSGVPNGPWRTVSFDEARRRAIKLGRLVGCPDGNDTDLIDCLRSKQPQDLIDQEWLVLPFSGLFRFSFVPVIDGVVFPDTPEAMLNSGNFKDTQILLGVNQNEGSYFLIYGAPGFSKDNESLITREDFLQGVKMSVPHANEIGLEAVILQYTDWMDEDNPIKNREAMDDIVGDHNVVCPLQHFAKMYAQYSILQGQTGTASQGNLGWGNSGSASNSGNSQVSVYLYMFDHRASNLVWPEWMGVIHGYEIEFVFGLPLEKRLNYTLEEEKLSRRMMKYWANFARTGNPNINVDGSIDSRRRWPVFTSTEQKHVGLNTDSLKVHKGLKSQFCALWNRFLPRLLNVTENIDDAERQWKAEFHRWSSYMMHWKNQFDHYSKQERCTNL
Description: Inhibition of Electric eel AChE using acetylthiocholine iodide as substrate preincubated for 5 mins followed by substrate addition measured after 5 mins by Ellman's method

[4] = target: Acetylcholinesterase (Electrophorus electricus) (UniProt O42275); test: Non-competitive inhibition of Electric eel AChE at 0.75 to 3.5 uM using varying levels of acetylthiocholine iodide as substrate preincubated for 5 mins followed by substrate addition measured after 5 mins by Cornish-Bowden plot analysis
[5] = target: Acetylcholinesterase (Electrophorus electricus) (UniProt O42275); test: Non-competitive inhibition of Electric eel AChE at 0.75 to 3.5 uM using varying levels of acetylthiocholine iodide as substrate preincubated for 5 mins followed by substrate addition measured after 5 mins by Lineweaver-Burk plot analysis
[6] = PAMPA, 6 h, 100 µM
Acetylcholinesterase [7] = target: T1, Acetylcholinesterase (Homo sapiens, UniProt P22303); test: Inhibition of recombinant human AChE using acetylthiocholine as substrate by Ellman's method
T1 sequence (P22303 whole entry): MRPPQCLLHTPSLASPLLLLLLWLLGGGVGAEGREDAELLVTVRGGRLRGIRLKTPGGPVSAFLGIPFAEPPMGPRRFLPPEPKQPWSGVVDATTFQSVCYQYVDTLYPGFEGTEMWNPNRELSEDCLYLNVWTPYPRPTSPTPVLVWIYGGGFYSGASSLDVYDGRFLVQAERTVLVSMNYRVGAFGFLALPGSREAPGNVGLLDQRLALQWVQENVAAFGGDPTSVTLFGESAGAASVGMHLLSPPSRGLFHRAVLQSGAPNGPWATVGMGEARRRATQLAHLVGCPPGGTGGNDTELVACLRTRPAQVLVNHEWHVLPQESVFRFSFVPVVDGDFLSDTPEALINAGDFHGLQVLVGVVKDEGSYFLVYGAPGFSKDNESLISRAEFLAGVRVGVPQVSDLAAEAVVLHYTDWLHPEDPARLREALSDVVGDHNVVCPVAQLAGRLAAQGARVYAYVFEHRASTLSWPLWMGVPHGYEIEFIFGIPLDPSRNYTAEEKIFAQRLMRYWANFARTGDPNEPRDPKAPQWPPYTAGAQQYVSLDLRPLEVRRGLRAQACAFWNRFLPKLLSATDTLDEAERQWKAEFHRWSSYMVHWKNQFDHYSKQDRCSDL

[8] = target: Amyloid-beta precursor protein (Homo sapiens) (UniProt P05067); test: Inhibition of recombinant human HFIP-pretreated amyloid beta (1 to 42) self-induced aggregation at 10 uM after 24 hrs by thioflavin T-based fluorometric assay relative to control
Sequence of Amyloid-beta precursor protein (Homo sapiens) (P05067 whole entry): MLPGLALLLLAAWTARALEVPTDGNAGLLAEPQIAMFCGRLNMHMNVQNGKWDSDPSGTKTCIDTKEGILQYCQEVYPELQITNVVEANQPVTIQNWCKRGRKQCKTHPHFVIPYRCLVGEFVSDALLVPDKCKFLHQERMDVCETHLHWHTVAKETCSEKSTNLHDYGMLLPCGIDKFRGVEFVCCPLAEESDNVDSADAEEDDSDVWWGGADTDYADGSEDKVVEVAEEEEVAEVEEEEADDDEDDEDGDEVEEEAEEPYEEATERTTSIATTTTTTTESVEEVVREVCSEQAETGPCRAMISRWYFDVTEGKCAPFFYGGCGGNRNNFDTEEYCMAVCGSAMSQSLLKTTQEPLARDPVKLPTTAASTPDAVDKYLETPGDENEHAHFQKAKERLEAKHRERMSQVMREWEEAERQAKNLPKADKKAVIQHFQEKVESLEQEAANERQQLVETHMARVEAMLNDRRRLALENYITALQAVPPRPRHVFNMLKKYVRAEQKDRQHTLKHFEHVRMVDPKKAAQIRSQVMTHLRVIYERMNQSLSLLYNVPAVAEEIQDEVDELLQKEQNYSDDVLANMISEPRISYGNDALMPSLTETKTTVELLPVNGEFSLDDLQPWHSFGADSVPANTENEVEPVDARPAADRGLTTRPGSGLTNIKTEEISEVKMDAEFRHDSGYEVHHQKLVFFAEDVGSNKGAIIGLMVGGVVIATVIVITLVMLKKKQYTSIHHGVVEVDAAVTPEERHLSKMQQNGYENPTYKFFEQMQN

Acetylcholinesterase [9] = target: T1, Acetylcholinesterase; test: Inhibition of recombinant human AChE using acetylthiocholine iodide as substrate preincubated for 5 mins followed by substrate addition measured after 5 mins by Ellman's method

`O=C1c2ccccc2S(=O)(=O)N1CCCCCCN1CCN(Cc2ccccc2)CC1` gave an inhibition [1] of 41.8% and an inhibition [2] of 41.7%.

In the case of `O=C1c2ccccc2S(=O)(=O)N1CCCCCN1CCN(Cc2ccccc2)CC1`, the inhibition [1] is reported as 30.4% and the inhibition [2] is reported as 43.1%.

With `O=C1c2ccccc2S(=O)(=O)N1CCCCN1CCN(Cc2ccccc2F)CC1` the Papp at 6 h, 100 µM (in vitro) was 11 ×10⁻⁶ cm/s, the inhibition [1] was 29.6% and the IC50 (Acetylcholinesterase [3]) was 4.25 µM. It also gave an inhibition [2] greater than 50%.

`O=C1c2ccccc2C(=O)N1CCN1CCCN(Cc2ccccc2F)C1` showed an inhibition [1] of 27.8% and an inhibition [2] of less than 10%.

`O=C1c2ccccc2C(=O)N1CCN1CCN(CCc2ccccc2F)CC1` gave an inhibition [1] of 20.3% and an inhibition [2] of less than 10%.

Compound `O=C1c2ccccc2S(=O)(=O)N1CCN1CCN(CCc2ccccc2)CC1` has an inhibition [1] of 18.4% and an inhibition [2] of less than 10%.

Work on `O=C1c2ccccc2S(=O)(=O)N1CCCCN1CCN(Cc2ccccc2)CC1` yielded a Papp at 6 h, 100 µM (in vitro) of 10.6 ×10⁻⁶ cm/s, an inhibition [1] of 41.5% and an IC50 (Acetylcholinesterase [3]) of 3.01 µM. For the same compound, the inhibition [2] was greater than 50%.

In the case of `O=C1c2ccccc2S(=O)(=O)N1CCN1CCN(Cc2ccccc2)CC1`, the inhibition [4] is reported as “Active”, the inhibition [5] is reported as “Active” and the Papp at 6 h, 100 µM (in vitro) is reported as 3.75 ×10⁻⁶ cm/s. The inhibition [1] was 22.1%, the IC50 (Acetylcholinesterase [3]) was 0.83 µM and the inhibition [2] was greater than 50%.

For `O=C1c2ccccc2S(=O)(=O)N1CCCCCCN1CCN(Cc2ccccc2F)CC1`, the inhibition [1] was 31.6%, the IC50 (Acetylcholinesterase [3]) was 8.43 µM and the inhibition [2] was greater than 50%.

`O=C1c2ccccc2S(=O)(=O)N1CCCCCN1CCN(Cc2ccccc2F)CC1` showed a Papp at 6 h, 100 µM (in vitro) of 9.6 ×10⁻⁶ cm/s, an inhibition [1] of 21.9% and an IC50 (Acetylcholinesterase [3]) of 7.36 µM. The inhibition [2] was greater than 50%.

`O=C1c2ccccc2C(=O)N1CCNC1CCCN(Cc2cc(F)cc(F)c2)C1` (stereo unspecified) gave an inhibition [1] of 14.2% and an inhibition [2] of less than 10%.

`O=C1c2ccccc2S(=O)(=O)N1CCN1CCN(CCc2ccccc2F)CC1` gave an inhibition [1] of 11.3% and an inhibition [2] of less than 10%.

`O=C1c2ccccc2S(=O)(=O)N1CCN1CCCC(NCc2ccccc2F)C1` (stereo unspecified) gave an inhibition [1] of less than 10% and an inhibition [2] of less than 10%.

In the case of `O=C1c2ccccc2C(=O)N1CCN1CCCC(NCc2ccccc2F)C1` (stereo unspecified), the inhibition [1] is reported as less than 10% and the inhibition [2] is reported as 15.3%.

`O=C1c2ccccc2C(=O)N1CCNC1CCCN(Cc2ccccc2F)C1` (stereo unspecified) showed an inhibition [1] of 28.3% and an inhibition [2] of 18.9%.

With `O=C1c2ccccc2C(=O)N1CCNC1CCN(Cc2ccccc2)C1` (stereo unspecified) the inhibition [1] was 21.4% and the inhibition [2] was 25.7%.

For `CCN(C)C(=O)Oc1cccc([C@H](C)N(C)C)c1` [RIVASTIGMINE], the permeability [6] was 6.6 ×10⁻⁶ cm/s.

Compound `CCN(Cc1ccccc1)Cc1ccc(-c2cc3cc(OCCNC(=O)/C=C/c4cc(F)cc(F)c4)ccc3oc2=O)cc1` has an IC50 (Acetylcholinesterase [7]) of 0.00716 µM.

Work on `O=C1c2ccccc2C(=O)N1CCN1CCCN(Cc2cc(F)cc(F)c2)C1` yielded an inhibition [1] of less than 10% and an inhibition [2] of less than 10%.

For `O=C1c2ccccc2S(=O)(=O)N1CCCN1CCN(Cc2ccccc2)CC1`, the inhibition [1] was 11.7% and the inhibition [2] was 34.2%.

With `O=C1c2ccccc2S(=O)(=O)N1CCN1CCCN(Cc2cc(F)cc(F)c2)C1` the inhibition [1] was 16.4% and the inhibition [2] was 25.4%.

`O=C1c2ccccc2S(=O)(=O)N1CCN1CCCN(Cc2ccccc2F)C1` showed an inhibition [1] of 21.6% and an inhibition [2] of 18.4%.

`O=C1c2ccccc2S(=O)(=O)N1CCCCCNCc1ccccc1` gave an inhibition [8] of 22.2% and an IC50 (Acetylcholinesterase [9]) of 0.033 µM.

`O=C1c2ccccc2C(=O)N1CCN1CCCC(NCc2cc(F)cc(F)c2)C1` (stereo unspecified) gave an inhibition [1] of 20%, an IC50 (Acetylcholinesterase [3]) of 6.47 µM and an inhibition [2] greater than 50%.

Compound `O=C1c2ccccc2S(=O)(=O)N1CCN1CCN(Cc2ccc(F)cc2)CC1` has a Papp at 6 h, 100 µM (in vitro) of 3.65 ×10⁻⁶ cm/s, an inhibition [1] of 47.5% and an IC50 (Acetylcholinesterase [3]) of 6.28 µM. For the same compound, the inhibition [2] was greater than 50%.

For `O=C1c2ccccc2C(=O)N1CCN1CCN(Cc2cc(F)cc(F)c2)CC1`, the inhibition [1] was 14.2% and the inhibition [2] was less than 10%.

In the case of `O=C1c2ccccc2C(=O)N1CCN1CCN(Cc2ccccc2F)CC1`, the inhibition [1] is reported as less than 10% and the inhibition [2] is reported as 41.8%.

Work on `O=C1c2ccccc2S(=O)(=O)N1CCN1CCN(Cc2ccccc2F)CC1` yielded an inhibition [1] of 16.1%, an IC50 (Acetylcholinesterase [3]) of 17.8 µM and an inhibition [2] greater than 50%.

`O=C1c2ccccc2S(=O)(=O)N1CCN1CCN(Cc2cc(F)cc(F)c2)CC1` gave an inhibition [1] of 11%, an IC50 (Acetylcholinesterase [3]) of 19.2 µM and an inhibition [2] greater than 50%.

Compound `O=C1c2ccccc2S(=O)(=O)N1CCN1CCCC(NCc2cc(F)cc(F)c2)C1` (stereo unspecified) has an inhibition [1] of less than 10% and an inhibition [2] of less than 10%.

`O=C1c2ccccc2S(=O)(=O)N1CCN1CCN(Cc2cccc(F)c2)CC1` gave an inhibition [1] of less than 10%, an IC50 (Acetylcholinesterase [3]) of 2.14 µM and an inhibition [2] greater than 50%.

With `O=C1c2ccccc2C(=O)N1CCNC1CCCN(Cc2ccccc2)C1` (stereo unspecified) the inhibition [1] was 16% and the inhibition [2] was less than 10%.

Compound `O=C1c2ccccc2S(=O)(=O)N1CCCN1CCN(Cc2ccccc2F)CC1` has an inhibition [1] of 12% and an inhibition [2] of less than 10%.
